According to patent US12133900B2, “Synthesis and composition of amino acid linking groups conjugated to compounds used for the targeted imaging of tumors” (Purdue Research Foundation, priority 2013, dated 2024):
“Also recorded” adds a separate entry of the source.

How the values were obtained:
[1] = target: T1, folate receptor (FR-α) on KB cells (Homo sapiens, UniProt P15328); assay: Competition binding with [3H]-folic acid on KB cells; settings: for Kd: 10 nM [3H]-folic acid, 1 h at 37 °C, read-out: dissociation constants (KD); for Kd / affinity and specificity for folate receptor (words): KB cells; for Relative binding affinities: relative affinity of folic acid=1, <1 weaker
T1 construct: KB cells that overexpress FR-α were seeded in 24-well (100,000 cells/well) Falcon plates; host or cells: KB cells (human; described as a HeLa derivative)
Method: KB cells that overexpress FR-α were seeded in 24-well (100,000 cells/well) Falcon plates and allowed to form monolayers over a period of 24 h. […] After incubating for 1 hour at 37° C., cells were rinsed with PBS (2×0.5 mL) and 1M trichloroacetic acid (1×0.5 mL) to remove any unbound radioactive materials. After adding 1% sodium dodecylsulfate in PBS (0.5 mL), cells were transferred into individual scintillation vials containing Ecolume scintillation cocktail (3.0 mL) and counted in a liquid scintillation analyzer. The relative binding affinities were calculated using a plot of cell bound radioactivity versus the concentration of the test article using Graph Pad Prism 4.
(§1) KB cells that overexpress FR-α were seeded in 24-well (100,000 cells/well) Falcon plates (BD Biosciences, CA) and allowed to form monolayers over a period of 12 h. […] After incubating for 1 h at 37° C., cells were rinsed with PBS (3×0.5 mL, Gibco, NY) to remove any unbound radioactive materials. After adding 0.25 M sodium hydroxide (0.5 mL) and incubating for 12 h at 4° C., cells were transferred into individual scintillation vials containing Ecolite scintillation cocktail (3.0 mL, MP Biomedicals, OH) and counted in a liquid scintillation analyzer (Packard). The relative binding affinities were calculated using a plot of % cell bound radioactivity versus the log concentration of the test article using GraphPad Prism 4.
as §1, with “12 hours.” for “12 h.”, “1 hour” for “1 h”, “12 hours” for “12 h”

[2] = Chemical and optical properties of NIR dyes (Table 1); format: physicochemical
[3] = test system: folate receptor positive KB tumor xenografts; assay: Whole body imaging and tissue biodistribution, KB tumor xenografts; format: in vivo, mice; settings: for whole body imaging: accumulation / tumor fluorescence intensity, direct comparison: 10 nmol i.v.; for whole body imaging: accumulation / tumor fluorescence intensity, direct comparison / tumor fluorescence: 2 h; for tumor fluorescence: 10 nmol
Method: (§2) Seven-week-old female nu/nu mice were inoculated subcutaneously with KB cells (1.0×10^6/mouse in folate free RPM11640 medium) on the shoulder. […] […] Whole body imaging (intact tumor) experiments were then performed using a Caliper IVIS Lumina II Imaging Station with Living Image 4.0 software (PerkinElmer Inc, MA). Settings for imaging:—lamp level: medium; excitation: 745 nm; emission: 830 nm; epi illumination; binning: 4 (M), FOV=12.5; f-stop=2; acquisition time=1 s.
(§3) Following whole body imaging, animals were dissected and selected tissues (heart, lung, liver, spleen, kidneys, stomach, small intestine, large intestine, muscle, skin, tumor) were analyzed for fluorescence activity using IVIS imager as before. Settings for imaging: lamp level: medium; excitation: 745 nm; emission: 830 nm; epi illumination; binning: 4 (M), FOV=12.5; f-stop=2; acquisition time=1 s.
as §2, with “shoulder. Growth of the tumors was measured in perpendicular directions every 2 days using a caliper (body weights were monitored on the same schedule), and the volumes of the tumors were calculated as 0.5×L×W^2 (L=longest axis and W=axis perpendicular to L in millimeters).” for “shoulder.”, “ICG (830 nm);” for “830 nm;”
as §3, with “skin, and” for “skin,”, “imaging:—lamp” for “imaging: lamp”, “emission:ICG (830 nm);” for “emission: 830 nm;”
Five-week-old female nu/nu mice were inoculated subcutaneously with KB cells (1.0×10^6/mouse in RPMI medium) on their shoulders. Growth of the tumors was measured in two perpendicular directions every 2 days using a caliper (body weights were monitored on the same schedule), and the volumes of the tumors were calculated as 0.5×L×W^2 (L) longest axis and W) axis perpendicular to L in millimeters). Once tumors reached between 400 and 500 mm3 in volume, animals were treated with folate receptor-targeted NIR dye conjugate (10 nmol) in phosphate buffered saline (100 μL). […]
Animal imaging experiments were performed using a Caliper Ivis Lumina II Imaging Station with Living Image 4.0 software. Settings for imaging Alexa Fluor 647 and DyLight 680 conjugates: lamp level: high; excitation: 605; emission: Cy5.5; epi illumination; binning: (M) 4; FOV=7.5; f-stop=4; acquisition time=1 s. Settings for imaging DyLight 750 and IR800CW conjugates: lamp level: high; excitation: 745; emission: ICG; epi illumination; binning: (M) 4, FOV=12.5; f-stop=4; acquisition time=1 s.
Seven-week-old female nu/nu mice were inoculated subcutaneously with KB cells (1.0×10^6/mouse in folate free RPM11640 medium) on the shoulder. Growth of the tumors was measured in perpendicular directions every 2 days using a caliper (body weights were monitored on the same schedule), and the volumes of the tumors were calculated as 0.5×L×W^2 (L=longest axis and W=axis perpendicular to L in millimeters). Once tumors reached between 400 and 500 mm3 in volume, animals (5 mice/group) were intravenously injected with 10 nmol of OTL-0038 or OTL-0039 in phosphate buffered saline (100 μL). After 2.5 hours, animals were euthanized by CO2 asphyxiation. Whole body imaging (intact tumor) experiments were then performed using a Caliper IVIS Lumina II Imaging Station with Living Image 4.0 software (PerkinElmer Inc, MA). […]

[4] = Toxicity in healthy nude mice; format: in vivo
Method: Seven-week-old healthy female nude mice (5 mice/group) were administered with 1 μmol of freshly prepared OTL-0038 or OTL-0039 dissolved in 100 μL of phosphate buffered saline via tail vein injection on day zero. Body weights and clinical observations were monitored prior to dosing and daily thereafter from day zero to 7. Any animals with a body weight loss of 20% or more over two consecutive days would be euthanized, but this was not necessary. The animals were euthanized by CO2 asphyxiation on day 7 and selected tissues (brain, heart, lung, liver, spleen, kidney, stomach, small intestine, large intestine, muscle, skin) were collected into vials containing 4% formalin. Formalin fixed tissues were sectioned into 10 μm thick sections and mounted onto Superfrost Plus™ slides (Fisher Scientific, Pittsburgh Pa.). After staining the slides with H&E, immunohistochemistry (IHC) analysis of the tissues was conducted to determine to the toxicity of OTL-0038 and OTL-0039.

T1 sequence (P15328 25-234): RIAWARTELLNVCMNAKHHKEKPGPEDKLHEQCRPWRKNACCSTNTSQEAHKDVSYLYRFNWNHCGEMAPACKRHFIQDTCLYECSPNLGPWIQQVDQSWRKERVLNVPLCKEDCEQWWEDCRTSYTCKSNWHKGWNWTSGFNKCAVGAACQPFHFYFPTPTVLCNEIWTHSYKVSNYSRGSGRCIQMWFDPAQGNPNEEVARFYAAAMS

Molecule	Kd [1] [nM]	Relative binding affinities [1]	whole body imaging: accumulation [3]	further results
Pteroyl DAP-S0456 [OTL-0056]	95.2	0.078	–	–
CC1(C)C(/C=C/C=C/C=C/C=C2\N(CCCCS(=O)(=O)O)c3ccc4ccccc4c3C2(C)C)=[N+](CCCCS(=O)(=O)[O-])c2ccc3ccccc3c21 [ICG, indocyanine green]	–	–	–	E [2]: 121000 M⁻¹ cm⁻¹; Q (%) [2]: 9.3%; Stokes Shift (nm) [2]: 15 nm; λem (nm) [2]: 807 nm; λex (nm) [2]: 822 nm
Pte-NHNH-Tyr-(OAc)-S0456 [OTL-0045]	–	–	–	affinity and specificity for folate receptor (words) [1]: All the compounds have an affinity for folate receptor except OTL-0044 and OTL-0045
Pte-N(Me)-Tyr-S0456 [OTL-0044]	–	–	accumulated predominantly in the folate receptor-positive tumors; also recorded: mainly accumulated in the tumors	affinity and specificity for folate receptor (words) [1]: All the compounds have an affinity for folate receptor except OTL-0044 and OTL-0045
Pte-Tyramine-S0456 [OTL-0049]	30.2	0.265	–	–
Pteroyl-Cys-S0456 [OTL-0054]	–	–	accumulated predominantly in the folate receptor-positive tumors	–
Pteroyl-Lys-S0456 [OTL-0053]	–	–	–	tumor fluorescence ([3]; excited at 605-675 nm, emitted at ICG (830 nm)): bright tumor fluorescence; tumor fluorescence ([3]; excited at 710-745 nm, emitted at ICG): only a moderate brightness; Stoke's shift ([3]; in vivo imaging): longer Stoke's shift
CC1(C)C(=CC=C2CCCC(C=CC3=[N+](CCC[N+](C)(C)C)c4ccc(S(=O)(=O)O)cc4C3(C)C)=C2Oc2ccc(CCC(=O)O)cc2)N(CCC[N+](C)(C)C)c2ccc(S(=O)(=O)O)cc21 [ZW80o]	–	–	–	E [2]: 249000 M⁻¹ cm⁻¹; Q (%) [2]: 15.1%; Stokes Shift (nm) [2]: 16 nm; λem (nm) [2]: 772 nm; λex (nm) [2]: 788 nm
FA-EDA-Kodak2 [OTL-0004]	30.6	0.271	did not accumulated in the tumors	tumor fluorescence intensity, direct comparison [3]: very low specificity for the tumor and low fluorescence
CC1(C)C(/C=C/C2=C(Oc3ccc(S(=O)(=O)O)cc3)C(=C/C=C3/N(CCCCS(=O)(=O)O)c4ccc(S(=O)(=O)[O-])cc4C3(C)C)/CCC2)=[N+](CCCCCC(=O)O)c2ccc(S(=O)(=O)O)cc21 [IR800CW]	–	–	–	E [2]: 237000 M⁻¹ cm⁻¹; Q (%) [2]: 14.2%; Stokes Shift (nm) [2]: 14 nm; λem (nm) [2]: 786 nm; λex (nm) [2]: 800 nm
CC1(C)C(=CC=C2CCCC(C=CC3=[N+](CCCCS(=O)(=O)[O-])c4ccc(S(=O)(=O)O)cc4C3(C)C)=C2Oc2ccc(C[C@@H](NC(=O)c3ccc(NCc4cnc5nc(N)[nH]c(=O)c5n4)cc3)C(=O)O)cc2)N(CCCCS(=O)(=O)O)c2ccc(S(=O)(=O)O)cc21 [OTL-0039, PTE-D-Tyr-S0456]	–	0.09	–	toxicity (conclusion) ([4]; 1 μmol (1000× clinical dose)): not toxic to animals; skin colour immediately after the injection ([4]; 1 μmol tail vein): became green; activity and behaviour ([4]; 1 μmol tail vein, day 0 to 7): behaved normally throughout the study; body weights over the course of the study ([4]; 1 μmol tail vein, day 0 to 7): remained stable; lesions in tissues (IHC data) ([4]; 1 μmol tail vein, day 7): no lesions identified in any tissues; affinity and specificity for folate receptor (words) [1]: lower affinity for folate receptor when compared to folic acid and OTL-0038
Pte-p-homo-Tyr-S0456 [OTL-0047]	12.8	0.625	accumulated predominantly in the folate receptor-positive tumors; also recorded: mainly accumulated in the tumors	–

Second part, led by results:

Kd [1] [nM]	Relative binding affinities [1]	Molecule	whole body imaging: accumulation [3]	further results
30.7	0.270	FA-EDA-LS288 [OTL-0001]	accumulated predominantly in the folate receptor positive tumors	–
19.3	0.430	FA-EDA-IR800 [OTL-0002]	accumulated predominantly in the folate receptor positive tumors	tumor fluorescence intensity, direct comparison [3]: brighter (higher fluorescence intensity); also recorded: highest tumor-accumulated fluorescence
27.6	0.290	Pte-Tyr-13C-S0456 [OTL-0040]	–	–
23.3	0.356	FA-EDA-ZW800 [OTL-0003]	accumulated predominantly in the folate receptor positive tumors	tumor fluorescence intensity, direct comparison [3]: highest tumor-accumulated fluorescence
13.8	0.580	Pte-homo-Tyr-S0456 [OTL-0046]	accumulated predominantly in the folate receptor-positive tumors; also recorded: mainly accumulated in the tumors	–
14.8	0.177	Pte-Tyr-(OBn)-S0456 [OTL-0043]	–	–
61.7	0.130	Pte-Tyr-2H(Deuterated)-S0456 [OTL-0042]	–	–
